Measured values as given in patent US8952024B2, “Herbicidal pyrimidone derivatives” (E I du Pont de Nemours and Company, priority 2009, dated 2015).

How the values were obtained:
Format in all cases: in vivo
[1] = test system: large crabgrass (Digitaria sanguinalis); assay: Test A pre-/postemergence plant response; conditions: for Crabgrass, Large plant response rating: visual injury, 0 to 100 scale (0 no effect, 100 complete control), approx. ten days
Procedure, shortened: (§1)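 Plants grown from seed in a loam soil and sand mix received test compounds both as a preemergence soil spray and, at the same time, as a postemergence spray at the one- to two-leaf stage. Injury was judged visually against untreated controls roughly ten days later, 0 meaning no effect and 100 complete control.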

[2] = test system: giant foxtail (Setaria faberii); assay: Test A pre-/postemergence plant response; conditions: for Foxtail, Giant plant response rating: visual injury, 0 to 100 scale (0 no effect, 100 complete control), approx. ten days
Procedure, shortened: as §1

[3] = test system: morningglory (Ipomoea spp.); assay: Test A pre-/postemergence plant response; conditions: for Morningglory plant response rating: visual injury, 0 to 100 scale (0 no effect, 100 complete control), approx. ten days
Procedure, shortened: as §1

corn (Zea mays) = assay: Test A pre-/postemergence plant response; conditions: for Corn plant response rating: visual injury, 0 to 100 scale (0 no effect, 100 complete control), approx. ten days
Procedure, shortened: as §1

[4] = test system: barnyardgrass (Echinochloa crus-galli); assay: Test A pre-/postemergence plant response; conditions: for Barnyardgrass plant response rating: visual injury, 0 to 100 scale (0 no effect, 100 complete control), approx. ten days
Procedure, shortened: as §1

[5] = test system: pigweed (Amaranthus retroflexus); assay: Test A pre-/postemergence plant response; conditions: for Pigweed plant response rating: visual injury, 0 to 100 scale (0 no effect, 100 complete control), approx. ten days
Procedure, shortened: as §1

[6] = test system: wheat (Triticum aestivum); assay: Test A pre-/postemergence plant response; conditions: for Wheat plant response rating: visual injury, 0 to 100 scale (0 no effect, 100 complete control), approx. ten days
Procedure, shortened: as §1

[7] = test system: velvetleaf (Abutilon theophrasti); assay: Test A pre-/postemergence plant response; conditions: for Velvetleaf plant response rating: visual injury, 0 to 100 scale (0 no effect, 100 complete control), approx. ten days
Procedure, shortened: as §1

rice (Oryza sativa) = assay: Test B flooded paddy test; conditions: for Plant response rating, Flood, Rice: 250 g ai/ha, flooded paddy test, visual rating on 0 to 100 scale (0 no effect, 100 complete control) after 13 to 15 days; for Plant response rating, Rice: Flood (flooded paddy test), 13 to 15 days; for Rice plant response rating: Flood, 31 g ai/ha, scale 0 to 100 (0 no effect, 100 complete control)
Procedure, shortened: (§2)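 Flooded-pot test: water raised to 3 cm above soil when treating, compound put in the water, level unchanged thereafter. Plants were at 2 leaves. Readout after 13 to 15 days, visual, relative to controls; 0 signifies no effect and 100 complete control.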

[8] = test system: ducksalad (Heteranthera limosa); assay: Test B flooded paddy test; conditions: for Plant response rating, Flood, Ducksalad: 250 g ai/ha, flooded paddy test, visual rating on 0 to 100 scale (0 no effect, 100 complete control) after 13 to 15 days; for Plant response rating, Ducksalad: Flood (flooded paddy test), 13 to 15 days; for Ducksalad plant response rating: Flood, 31 g ai/ha, scale 0 to 100 (0 no effect, 100 complete control)
Procedure, shortened: as §2

[9] = test system: barnyardgrass (Echinochloa crus-galli); assay: Test B flooded paddy test; conditions: for Plant response rating, Flood, Barnyardgrass: 250 g ai/ha, flooded paddy test, visual rating on 0 to 100 scale (0 no effect, 100 complete control) after 13 to 15 days; for Plant response rating, Barnyardgrass: Flood (flooded paddy test), 13 to 15 days; for Barnyardgrass plant response rating: Flood, 31 g ai/ha, scale 0 to 100 (0 no effect, 100 complete control)
Procedure, shortened: as §2

[10] = test system: umbrella sedge (Cyperus difformis); assay: Test B flooded paddy test; conditions: for Plant response rating, Flood, Sedge, Umbrella: 250 g ai/ha, flooded paddy test, visual rating on 0 to 100 scale (0 no effect, 100 complete control) after 13 to 15 days; for Plant response rating, Sedge, Umbrella: Flood (flooded paddy test), 13 to 15 days; for Sedge, Umbrella plant response rating: Flood, 31 g ai/ha, scale 0 to 100 (0 no effect, 100 complete control)
Procedure, shortened: as §2

[11] = Postemergence, 125 g ai/ha, 0 to 100 scale where 0 is no effect and 100 is complete control
[12] = Preemergence, 125 g ai/ha, 0 to 100 scale, 0 = no effect, 100 = complete control
[13] = Preemergence, 500 g ai/ha, 0 to 100 scale, 0 = no effect, 100 = complete control
[14] = 62 g ai/ha, scale of 0 to 100 where 0 is no effect and 100 is complete control
[15] = 125 g ai/ha, scale 0 to 100, 0 is no effect, 100 is complete control

SMILES: COc1ccc(-n2c(-c3cccc(C)c3)ncc(C(=O)C3=C(O)CCCC3=O)c2=O)cc1 [Compound 212]
- Plant response rating, Crabgrass, Large [1, 11]: 10
- Crabgrass, Large plant response rating ([1]; Postemergence, 500 g ai/ha): 30
- Plant response rating, Crabgrass, Large [1, 12]: 0
- Plant response rating, Crabgrass, Large [1, 13]: 40
- Plant response rating, Foxtail, Giant [2, 11]: 0
- Foxtail, Giant plant response rating ([2]; Postemergence, 500 g ai/ha): 40
- Plant response rating, Foxtail, Giant [2, 12]: 10
- Plant response rating, Foxtail, Giant [2, 13]: 50
- Plant response rating, Morningglory [3, 11]: 50
- Morningglory plant response rating ([3]; Postemergence, 500 g ai/ha): 100
- Plant response rating, Morningglory [3, 12]: 0
- Plant response rating, Morningglory [3, 13]: 80
- Plant response rating, Corn (corn (Zea mays); [11]): 0
- Corn plant response rating (corn (Zea mays); Postemergence, 500 g ai/ha): 0
- Plant response rating, Corn (corn (Zea mays); [12]): 0
- Plant response rating, Corn (corn (Zea mays); [13]): 0
- Plant response rating, Barnyardgrass [4, 11]: 50
- Barnyardgrass plant response rating ([4]; Postemergence, 500 g ai/ha): 100
- Plant response rating, Barnyardgrass [4, 12]: 10
- Plant response rating, Barnyardgrass [4, 13]: 90
- Plant response rating, Pigweed [5, 11]: 100
- Pigweed plant response rating ([5]; Postemergence, 500 g ai/ha): 100
- Plant response rating, Pigweed [5, 12]: 60
- Plant response rating, Pigweed [5, 13]: 90
- Plant response rating, Wheat [6, 11]: 0
- Wheat plant response rating ([6]; Postemergence, 500 g ai/ha): 0
- Plant response rating, Wheat [6, 12]: 0
- Plant response rating, Wheat [6, 13]: 0
- Plant response rating, Velvetleaf [7, 11]: 70
- Velvetleaf plant response rating ([7]; Postemergence, 500 g ai/ha): 70
- Plant response rating, Velvetleaf [7, 12]: 50
- Plant response rating, Velvetleaf [7, 13]: 70
- Plant response rating, Flood, Rice (rice (Oryza sativa)): 10
- Plant response rating, Rice (rice (Oryza sativa); [14]): 0
- Plant response rating, Rice (rice (Oryza sativa); [15]): 0
- Rice plant response rating (rice (Oryza sativa)): 0
- Plant response rating, Flood, Ducksalad [8]: 95
- Plant response rating, Ducksalad [8, 14]: 85
- Plant response rating, Ducksalad [8, 15]: 90
- Ducksalad plant response rating [8]: 85
- Plant response rating, Flood, Barnyardgrass [9]: 50
- Plant response rating, Barnyardgrass [9, 14]: 0
- Plant response rating, Barnyardgrass [9, 15]: 0
- Barnyardgrass plant response rating [9]: 0
- Plant response rating, Flood, Sedge, Umbrella [10]: 95
- Plant response rating, Sedge, Umbrella [10, 14]: 85
- Plant response rating, Sedge, Umbrella [10, 15]: 90
- Sedge, Umbrella plant response rating [10]: 80

SMILES: CCc1ccc(-n2c(-c3cccc(C)c3)ncc(C(=O)C3=C(O)CCCC3=O)c2=O)cc1 [Compound 213]
- Plant response rating, Crabgrass, Large [1, 11]: 20
- Crabgrass, Large plant response rating ([1]; Postemergence, 500 g ai/ha): 50
- Plant response rating, Crabgrass, Large [1, 12]: 0
- Plant response rating, Crabgrass, Large [1, 13]: 50
- Plant response rating, Foxtail, Giant [2, 11]: 10
- Foxtail, Giant plant response rating ([2]; Postemergence, 500 g ai/ha): 40
- Plant response rating, Foxtail, Giant [2, 12]: 10
- Plant response rating, Foxtail, Giant [2, 13]: 30
- Plant response rating, Morningglory [3, 11]: 60
- Morningglory plant response rating ([3]; Postemergence, 500 g ai/ha): 100
- Plant response rating, Morningglory [3, 13]: 60
- Plant response rating, Corn (corn (Zea mays); [11]): 0
- Corn plant response rating (corn (Zea mays); Postemergence, 500 g ai/ha): 20
- Plant response rating, Corn (corn (Zea mays); [12]): 0
- Plant response rating, Corn (corn (Zea mays); [13]): 0
- Plant response rating, Barnyardgrass [4, 11]: 20
- Barnyardgrass plant response rating ([4]; Postemergence, 500 g ai/ha): 100
- Plant response rating, Barnyardgrass [4, 12]: 0
- Plant response rating, Barnyardgrass [4, 13]: 30
- Plant response rating, Pigweed [5, 11]: 80
- Pigweed plant response rating ([5]; Postemergence, 500 g ai/ha): 100
- Plant response rating, Pigweed [5, 12]: 50
- Plant response rating, Pigweed [5, 13]: 90
- Plant response rating, Wheat [6, 11]: 0
- Wheat plant response rating ([6]; Postemergence, 500 g ai/ha): 0
- Plant response rating, Wheat [6, 12]: 0
- Plant response rating, Wheat [6, 13]: 0
- Plant response rating, Velvetleaf [7, 11]: 70
- Velvetleaf plant response rating ([7]; Postemergence, 500 g ai/ha): 60
- Plant response rating, Velvetleaf [7, 12]: 40
- Plant response rating, Velvetleaf [7, 13]: 60
- Plant response rating, Flood, Rice (rice (Oryza sativa)): 20
- Plant response rating, Rice (rice (Oryza sativa); [14]): 0
- Plant response rating, Rice (rice (Oryza sativa); [15]): 0
- Rice plant response rating (rice (Oryza sativa)): 0
- Plant response rating, Flood, Ducksalad [8]: 100
- Plant response rating, Ducksalad [8, 14]: 85
- Plant response rating, Ducksalad [8, 15]: 90
- Ducksalad plant response rating [8]: 75
- Plant response rating, Flood, Barnyardgrass [9]: 30
- Plant response rating, Barnyardgrass [9, 14]: 0
- Plant response rating, Barnyardgrass [9, 15]: 0
- Barnyardgrass plant response rating [9]: 0
- Plant response rating, Flood, Sedge, Umbrella [10]: 90
- Plant response rating, Sedge, Umbrella [10, 14]: 80
- Plant response rating, Sedge, Umbrella [10, 15]: 85
- Sedge, Umbrella plant response rating [10]: 65
